Results as given in US20040138272A1, “1,4-Substituted cyclohexane derivatives” (priority 2002, published 2004).

System: NG108-15 neuronal cell line
Assay: Rapid bioassay of neurite growth in NG108-15 cells
Format: cell-based
Protocol: When neurons are placed on inhibitory substrates in tissue culture, the neurons remain rounded. When an effective Rho kinase inhibitor is added to the neurons, the neurons are able to grow neurites on myelin substrates. The time that it takes for neurons to grow neurites after the addition of a Rho kinase inhibitor is about the same as the time that it takes for neurons to grow neurites if the neurons had been plated on growth permissive substrate such as laminin or polylysine, which time is typically 1 to 2 days in cell culture. An assessment of resulting neurite growth can be scored by visual means. If needed, a quantitative assessment of neurite growth can be performed. This involves measuring after a time such as 1 to 2 days the neurite length a) in control cultures where neurons are plated on myelin substrates and left untreated with Rho kinase inhibitor for such time, b) in positive control cultures, wherein for example neurons are plated on polylysine but left untreated with Rho kinase inhibitor for such time, and c) in cultures analogous to a) and b) that are treated with different concentrations of a Rho kinase inhibitor for such time. […] In this assay, NG108 cells are plated on plastic in the presence or absence of the test substance (a Rho kinase inhibitor). […] The relative efficacy can be assessed by fixing the cultures 5 hours after plating, and counting the number of cells that have grown neurites.
A rapid bioassay is used to determine the effect of a test compounds on the stimulation of neurite growth in vitro. A neuronal cell line, NG108-15 (ATCC HB-12317), is maintained in culture in Dulbecco's minimal essential medium (DMEM) supplemented with 10% fetal bovine serum, Penicillin/Streptomycin and HAT supplement (Gibco/BRL). For the bioassay, the cells are collected by trypsinisation and ressuspended in DMEM supplemented with 5% FBS, Penicillin/Streptomycin, HAT supplement and 0.25 mg/ml cAMP, adjusted to 1.0×10^4 cells/ml. The cells are plated into wells of a 96 well plate at 100 μls (1000 cells)/well. Cells are incubated 4 h at 37° C. and 5% CO2 in presence of small molecules or cethrin at a concentration of 1000 cells per well of a 96-wells plate in a final volume of 100 ul.
After incubation, cells are fixed by adding […] 16% PFA and 5.4 μls 2.5% glutaraldehyde to the media in each well. The wells are stained with cresyl violet 0.05% , 100 μls/well for 15 min. Cells with neurites (length≧one cell body) are counted using an inverted light microscope. The % neurite outgrowth is determined by calculating the number of cells with neurites over the total number of counted cells.

Question: Which results are given for “(R)-trans-4-(But-3′-en-1′-amino)-N-(4″-pyridyl)cyclohexane Carboxamide Dihydrochloride [BA-1016]”?
Answer: efficacy of the stereoisomers compared (FIG. 2) (BA-1016 versus BA-1017): better efficacy; neurite outgrowth (FIG. 2) (NG108 cells, 3.1 to 31 μM): promote neurite outgrowth
